These are literature values, as cited in patent US20260108515A1, “A RAPIDLY DISINTEGRATING TABLET OF ROSUVASTATIN AND ITS PROCESS OF PREPARATION” (NOVUMGEN LIMITED, priority 2022, published 2026).

For data set [1] the following is noted: in vivo.
The conditions of data set [2]: high permeability and low solubility.
The test system of data set [3] is high-density lipoprotein—Cholesterol. The following applies: patients with raised triglyceride levels.
Another data set addresses CYP3A4 (Homo sapiens, UniProt P08684).

Sequence of CYP3A4 (P08684 whole entry): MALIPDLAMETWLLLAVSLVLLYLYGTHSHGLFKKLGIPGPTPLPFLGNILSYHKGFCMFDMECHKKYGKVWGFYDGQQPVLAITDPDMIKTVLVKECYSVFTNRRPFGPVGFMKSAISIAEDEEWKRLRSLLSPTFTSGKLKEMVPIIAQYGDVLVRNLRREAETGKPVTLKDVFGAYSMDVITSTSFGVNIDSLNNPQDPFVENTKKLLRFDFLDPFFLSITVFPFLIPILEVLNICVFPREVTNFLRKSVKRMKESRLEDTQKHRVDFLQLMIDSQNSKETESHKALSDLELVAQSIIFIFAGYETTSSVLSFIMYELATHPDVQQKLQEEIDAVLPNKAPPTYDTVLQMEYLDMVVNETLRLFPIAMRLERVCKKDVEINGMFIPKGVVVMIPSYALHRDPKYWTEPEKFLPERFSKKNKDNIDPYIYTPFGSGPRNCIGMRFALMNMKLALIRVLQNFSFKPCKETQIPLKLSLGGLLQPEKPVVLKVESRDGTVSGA

On to `CC(C)c1nc(N(C)S(C)(=O)=O)nc(-c2ccc(F)cc2)c1/C=C/[C@@H](O)C[C@@H](O)CC(=O)O` [Rosuvastatin, (E,3R,5S)-7-[4-(4-fluorophenyl)-2-[methyl(methylsulfonyl)amino]-6-propan-2-ylpyrimidin-5-yl]-3,5-dihydroxyhept-6-enoic acid], for which, in data set [1], the plasma half-life is 18 to 24 h. The “biopharmaceutics classification system (BCS) class” value in data set [2] was “class II”. Besides, the “raises high-density lipoprotein—Cholesterol” value in data set [3] was 15-20%. The metabolizing isoenzyme entry on CYP3A4 is given as “metabolized primarily by CYP3A4”.
